Results reported in patent US8901138B2, “Sulfoximine substituted quinazolines for pharmaceutical compositions” (Boehringer Ingelheim International GmbH, priority 2012, dated 2014).

What was measured:
MNK1a = MNK1a (Homo sapiens, UniProt Q9BUB5); assay: MNK1 in vitro kinase assay (assay 2), Z'-LYTE; type: biochemical; settings: for IC50: pre-activated GST-MNK1a
Description: B. MNK1 In Vitro Kinase Assay (Assay 2)
MNK1 Data can be obtained from the MNK1 Z′-LYTE® assay. The MNK1 Z′-LYTE® screening protocol and assay conditions are also described on www.invitrogen.com.
The assay is described as follows:
The Z′-LYTE® biochemical assay employs a fluorescence-based, coupled-enzyme format and is based on the differential sensitivity of phosphorylated and non-phosphorylated peptides to proteolytic cleavage. The peptide substrate is labeled with two fluorophores—one at each end—that make up a FRET pair.
In the primary reaction, the kinase transfers the gamma-phosphate of ATP to a single tyrosine, serine or threonine residue in a synthetic FRET-peptide. In the secondary reaction, a site-specific protease recognizes and cleaves non-phosphorylated FRET-peptides. Phosphorylation of FRET-peptides suppresses cleavage by the Development Reagent. Cleavage disrupts FRET between the donor (i.e., coumarin) and acceptor (i.e., fluorescein) fluorophores on the FRET-peptide, whereas uncleaved, phosphorylated FRET-peptides maintain FRET. A ratiometric method, which calculates the ratio (the Emission Ratio) of donor emission to acceptor emission after excitation of the donor fluorophore at 400 nm, is used to quantitate reaction progress, as shown in the equation below. Emission Ratio=Coumarin Emission(445 nm)/Fluorescein Emission(520 nm)
ASSAY SETUP: The inhibition of kinase activity of MNK1a was assessed using pre-activated GST-MNK1a. The 2×MKNK1 (MNK1) mixture is prepared in 50 mM HEPES pH 7.5, 0.01% BRIJ-35, 10 mM MgCl2, 4 mM MnCl2, 1 mM EGTA, 2 mM DTT. The final 10 μL Kinase Reaction consists of 13.5-54 ng MKNK1 (MNK1) and 2 μM Ser/Thr 07 in 50 mM HEPES pH 7.5, 0.01% BRIJ-35, 10 mM MgCl2, 2 mM MnCl2, 1 mM EGTA, 1 mM DTT. After the 1 hour Kinase Reaction incubation, 5 μL of a 1:32768 dilution of Development Reagent A is added.
The Test Compounds are screened in 1% DMSO (final) in the well.
All Peptide/Kinase Mixtures are diluted to a 2× working concentration in the MNK1 Kinase Buffer.
All ATP Solutions are diluted to a 4× working concentration in Kinase Buffer (50 mM HEPES pH 7.5, 0.01% BRIJ-35, 10 mM MgCl2, 1 mM EGTA).
Development Reagent Solution:
The Development Reagent is diluted in Development Buffer
Bar-coded Corning, low volume NBS, 384-well plate (Corning Cat. #3676)
1. 2.5 μL-4× Test Compound
2. 5 μL-2× Peptide/Kinase Mixture
5. 60-minute Kinase Reaction incubation at room temperature
6. 5 μL-Development Reagent Solution
8. 60-minute Development Reaction incubation at room temperature
9. Read on fluorescence plate reader and analyze the data
The following equations are used for each set of data points: […]
Correction for Background Fluorescence: FSample−FITCFl Ctl
Emission Ratio (using values corrected for background fluorescence):Coumarin
Emission (445 nm)/Fluorescein Emission (520 nm)
% Phosphorylation (% Phos): 1−((Emission Ratio×F100%)−C100%)/((C0%−C100%)+[Emission Ratio×(F100%−F0%)])*100 % Inhibition: 1−(% PhosSample/% Phos0% Inhibition Ctl)*100 FI=Fluorescence Intensity C100%=Average Coumarin emission signal of the 100% Phos. Control C0%=Average Coumarin emission signal of the 0% Phos. Control F100%=Average Fluorescein emission signal of the 100% Phos. Control F0%=Average Fluorescein emission signal of the 0% Phos. Control Graphing Software
SelectScreen® Kinase Profiling Service uses XLfit from IDBS. The dose response curve is curve fit to model number 205 (sigmoidal dose-response model).

MNK2a = biological target: T1, MNK2a (Homo sapiens, UniProt Q9HBH9); assay: MNK2a in vitro kinase assay (assay 1), ADP-Glo; type: biochemical; settings: preactivated GST-MNK2a, 20 μM ATP, read-out: MNK2 IC50
T1 construct: made in house
Experimental: A. MNK2a In Vitro Kinase Assay (Assay 1)
ASSAY SETUP: The inhibition of kinase activity of MNK2a was assessed using preactivated GST-MNK2a. The white, 384-well OptiPlate F plates were purchased from Perkin Elmer. The ADP-Glo Kinase Assay (including ultra pure ATP) was purchased from Promega (V9103). Activated MNK2a was obtained as described in WO2011/104340. The unlabeled eIF4E peptide (NH2-[…]—CONH2) (SEQ ID NO: 1), differing from Seq. ID No. 5 of WO 2011/104340 by the C-terminal —CONH2 group, was purchased from Thermo Fisher Scientific. All other materials were of highest grade commercially available. Compounds are tested in either serial dilutions or single dose concentrations. The compound stock solutions are 10 mM in 100% DMSO The serial compound dilutions are prepared in 100% DMSO followed by 1:27.3 intermediate dilution in assay buffer. The final DMSO concentration in assay will be <3%. In the 384-well plates 3 μl of test compound from the intermediate dilution is mixed with 4 μl of the activated MNK2 enzyme (final concentration of 10 nM) and 4 μl of the peptide (final concentration of 25 μM)/ultra pure ATP (final concentration of 20 μM), all dissolved in assay buffer. This step is followed by an incubation time of 90 min, then 10 μl of ADP Glo reagent are added, followed by 40 min of incubation. Then 20 μl of kinase detection reagent are admixed. The plates are sealed and after an incubation period of 30 min, the luminescence signal is measured in an Envision reader to determine the amount of produced ADP. All incubation steps are performed at room temperature. The assay buffer consists of 20 mM HEPES, 2 mM DTT, 0.01% BSA, 20 mM MgCl2 and 0.1% Pluronic F-127.
Each assay microtiter plate contains wells with vehicle controls instead of compound (1% DMSO in water) as reference for the high signal (100% CTL, high signal), and wells containing a potent MNK2 inhibitor (final 20 μM, 1% DMSO) as reference for low signal (0% CTL, low signal).
The luminescent signal generated is proportional to the ADP concentration produced and is correlated with activated MNK2 activity. The analysis of the data is performed by the calculation of the percentage of ATP consumption of activated MNK2 in the presence of the test compound compared to the consumption of ATP in the presence of activated MNK2 without compound. (RLU(sample)−RLU(low control))*100/(RLU(high value)−RLU(low control)) [RLU=relative luminescence units]
An inhibitor of the MNK2 enzyme will give values between 100% CTL (no inhibition) and 0% CTL (complete inhibition). Values of more than 100% CTL are normally related to compound/sample specific physico-chemical properties (e.g. solubility, light absorbance, fluorescence).
IC50 values based on dose response curves are calculated with the AssayExplorer software.

T1 sequence (Q9HBH9 whole entry): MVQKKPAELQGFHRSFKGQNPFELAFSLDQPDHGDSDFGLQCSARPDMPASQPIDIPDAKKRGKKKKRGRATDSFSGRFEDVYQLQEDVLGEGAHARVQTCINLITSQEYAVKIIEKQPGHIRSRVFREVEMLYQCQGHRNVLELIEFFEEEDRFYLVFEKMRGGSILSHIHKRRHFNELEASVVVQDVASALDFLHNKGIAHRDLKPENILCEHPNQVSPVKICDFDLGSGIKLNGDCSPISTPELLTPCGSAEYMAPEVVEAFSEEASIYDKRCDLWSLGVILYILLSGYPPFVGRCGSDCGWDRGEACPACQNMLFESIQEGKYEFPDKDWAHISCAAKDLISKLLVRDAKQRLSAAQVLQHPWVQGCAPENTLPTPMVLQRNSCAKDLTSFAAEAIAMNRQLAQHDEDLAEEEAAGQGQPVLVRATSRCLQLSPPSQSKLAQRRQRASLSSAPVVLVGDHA
Sequence of MNK1a (Q9BUB5 1-424 isoform Q9BUB5-2): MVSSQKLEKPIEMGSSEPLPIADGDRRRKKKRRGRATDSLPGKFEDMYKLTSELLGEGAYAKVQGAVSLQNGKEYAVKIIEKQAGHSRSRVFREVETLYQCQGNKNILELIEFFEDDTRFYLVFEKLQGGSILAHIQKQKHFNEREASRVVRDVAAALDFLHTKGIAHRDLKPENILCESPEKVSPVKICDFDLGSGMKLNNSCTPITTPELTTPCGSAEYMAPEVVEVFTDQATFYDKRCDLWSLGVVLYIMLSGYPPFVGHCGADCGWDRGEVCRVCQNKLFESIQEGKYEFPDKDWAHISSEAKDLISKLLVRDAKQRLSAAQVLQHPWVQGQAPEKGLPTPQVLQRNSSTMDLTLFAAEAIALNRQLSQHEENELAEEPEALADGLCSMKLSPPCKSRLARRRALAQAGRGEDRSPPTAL

inhibition at 1 µM (MNK1a; compound concentration of 1 μM) [%]	IC50 (MNK2a) [nM]	% Inhibition of MNK1 (MNK1a; compound concentration of 1 μM, 1 µM) [%]	IC50 (MNK1a) [nM]	Compound
73	11			Cc1cc(N=S(C)(C)=O)cc2ncnc(Nc3ccc(F)cc3O[C@@H]3CO[C@@H]4OCC[C@@H]43)c12 (racemic) [Example 2.62]
88	5			Cc1cc(N=S2(=O)CCCC2)cc2ncnc(Nc3ccc(F)cc3O[C@@H]3CO[C@@H]4OCC[C@@H]43)c12 (racemic) [Example 2.82]
84	14			COC1CCCC(Oc2cc(F)ccc2Nc2ncnc3cc(N=S(C)(C)=O)cc(C)c23)C1 (racemic) [Example 4.12]
98	2			CCS(C)(=O)=Nc1cc(C)c2c(Nc3ccc(F)cc3OC3CCOC3)ncnc2c1 (single isomer, unassigned) [Example 7.13]
	7	91		CCS(C)(=O)=Nc1cc(C)c2c(Nc3ccc(F)cc3OC3CCOC3)ncnc2c1 (single isomer, unassigned) [Example 7.14]
98	1			Cc1cc(N=S(C)(C)=O)cc2ncnc(Nc3ccc(F)cc3O[C@@H]3CO[C@H]4[C@@H]3OC[C@@H]4O)c12 [Example 1.1]
	1		13	CO[C@@H]1CO[C@H]2[C@@H]1OC[C@H]2Oc1cc(F)ccc1Nc1ncnc2cc(N=S(C)(C)=O)cc(Cl)c12 [Example 1.2]
100	1		25	CS(C)(=O)=Nc1cc(Cl)c2c(Nc3ccc(F)cc3O[C@@H]3CO[C@@H]4CCO[C@@H]43)ncnc2c1 [Example 1.4]
90	6			Cc1cc(N=S(C)(C)=O)cc2ncnc(Nc3cccnc3O[C@@H]3CO[C@H]4[C@@H]3OC[C@H]4O)c12 [Example 1.9]
80				Cc1cc(N=S(C)(C)=O)cc2ncnc(Nc3ccc(Br)cc3OC3CCOCC3)c12 [Example 1.10]
92	21			Cc1cc(N=S(C)(C)=O)cc2ncnc(Nc3ccccc3OC3CCOCC3)c12 [Example 1.12]
95	3			CS(C)(=O)=Nc1cc(C2CC2)c2c(Nc3ccc(F)cc3O[C@H]3CCOC3)ncnc2c1 [Example 1.15]
	2		39	CS(C)(=O)=Nc1cc(Cl)c2c(Nc3ccc(F)cc3O[C@H]3CC[C@H](O)CC3)ncnc2c1 [Example 1.17]
100	2			Cc1cc(N=S(C)(C)=O)cc2ncnc(Nc3ccc(F)cc3O[C@@H]3CO[C@H]4[C@@H]3OC[C@H]4O)c12 [Example 1.18]
42	106			CS(C)(=O)=Nc1cc(N2CCC2)c2c(Nc3ccc(F)cc3O[C@H]3CCOC3)ncnc2c1 [Example 1.19]
100	1			CO[C@@H]1CO[C@H]2[C@@H]1OC[C@H]2Oc1cc(F)ccc1Nc1ncnc2cc(N=S(C)(C)=O)cc(Br)c12 [Example 1.20]

inhibition at 1 µM (MNK1a; compound concentration of 1 μM) [%]	IC50 (MNK2a) [nM]	% Inhibition of MNK1 (MNK1a; compound concentration of 1 μM, 1 µM) [%]	IC50 (MNK1a) [nM]	Compound
	2		21	CS(C)(=O)=Nc1cc(C(F)F)c2c(Nc3ccc(F)cc3O[C@H]3CCOC3)ncnc2c1 [Example 1.21]
56	25			CS(C)(=O)=Nc1cc(O)c2c(Nc3ccc(F)cc3O[C@H]3CCOC3)ncnc2c1 [Example 1.22]
94	4			CS(C)(=O)=Nc1cc(OC(F)F)c2c(Nc3ccc(F)cc3O[C@H]3CCOC3)ncnc2c1 [Example 1.23]
47				Cc1cc(N=S(C)(C)=O)cc2ncnc(Nc3ccc(F)cc3O[C@H]3CO[C@H]4[C@@H]3OC[C@H]4O)c12 [Example 2.19]
81				Cc1cc(N=S2(=O)CCN(C(=O)OC(C)(C)C)CC2)cc2ncnc(Nc3ccc(F)cc3O[C@H]3CO[C@H]4[C@@H]3OC[C@H]4O)c12 [Example 2.21]
50				CC(C)(C)OC(=O)N1CC[C@@H](Oc2cc(F)ccc2Nc2ncnc3cc(N=S(C)(C)=O)cc(F)c23)C1 [Example 2.32]
88				CO[C@H]1CC[C@H](Oc2cc(F)ccc2Nc2ncnc3cc(N=S(C)(C)=O)cc(F)c23)CC1 [Example 2.46]
60				Cc1cc(N=S(C)(C)=O)cc2ncnc(Nc3ccc(F)cc3O[C@@H]3CCN(C(=O)OC(C)(C)C)C3)c12 [Example 2.52]
85				COCCS(C)(=O)=Nc1cc(C)c2c(Nc3ccc(F)cc3O[C@H]3CCOC3)ncnc2c1 (stereo partly drawn) [Example 2.63]
100				Cc1cc(N=S2(=O)CCCC2)cc2ncnc(Nc3ccc(F)cc3O[C@H]3CCOC3)c12 [Example 2.85]
89				CCS(=O)(CC)=Nc1cc(C)c2c(Nc3ccc(F)cc3O[C@@H]3CO[C@H]4[C@@H]3OC[C@H]4O)ncnc2c1 [Example 2.86]
92				Cc1cc(N=S2(=O)CCCC2)cc2ncnc(Nc3ccc(F)cc3O[C@@H]3CCNC3)c12 [Example 3.4]
75				Cc1cc(N=S(C)(C)=O)cc2ncnc(Nc3ccc(F)cc3OC3CCOC3=O)c12 (stereo not drawn) [Example 4.13]
91				Cc1cc(N=S(C)(C)=O)cc2ncnc(Nc3cccnc3O[C@@H]3CCCN(CC(C)(C)O)C3)c12 [Example 6.5]
70				CC(C)(O)CN1CCC[C@@H](Oc2ncccc2Nc2ncnc3cc(N=S(C)(C)=O)cc(F)c23)C1 [Example 6.19]
72				COC(=O)N1CCS(=O)(=Nc2cc(C)c3c(Nc4ccc(F)cc4O[C@H]4CC[C@H](OC)CC4)ncnc3c2)CC1 [Example 7.3]
